Measured values as given in ChEMBL document CHEMBL4706683 (J Med Chem, 2021).
The source made the active and inactive calls. The rule behind the calls is not given here.

Tests used:
[1] = Selectivity index, ratio of IC50 for cytotoxicity against human HEK293T cells assessed to IC50 for antiplasmodial activity against synchronized ring stage Plasmodium falciparum 3D7 infected in human erythrocytes; type: toxicity, cell-based; conditions: read-out: Ratio IC50
[2] = tested on: Plasmodium falciparum; assay: Antiplasmodial activity against Plasmodium falciparum C2A infected in human erythrocytes assessed as reduction in parasite growth incubated for 72 hrs by Giemsa staining based light microscopic method; type: functional, organism-based; conditions: Erythrocyte
[3] = tested on: Plasmodium yoelii; assay: Antiplasmodial activity against blood stage Plasmodium yoelii infected in Balb/c mouse assessed as reduction in parasitemia at 10 to 30 mg/kg, ip QD for 5 consecutive days and measured on day 20 by microscopic analysis; type: functional, organism-based; conditions: dose 10-30 mg/kg, time 5.0 day
[4] = tested on: Plasmodium yoelii; assay: Antiplasmodial activity against blood stage Plasmodium yoelii infected in Balb/c mouse assessed as reduction in parasitemia at 60 mg/kg, ip QD for 5 consecutive days and measured on day 30 by microscopic analysis; type: functional, organism-based; conditions: time 5.0 day
[5] = molecular target: Histone deacetylase 2 (Homo sapiens, UniProt Q92769); assay: Inhibition of human HDAC2 expressed in Sf9 cells using Ac-peptide as substrate preincubated for 15 mins followed by substrate and trypsin addition and further incubated for 60 mins
[6] = AUC (0 to infinity) in Balb/c mouse at 5 mg/kg, ip administered as single dose measured upto 24 hrs by LC-MS/MS analysis; type: ADME, organism-based; set-up: route intraperitoneal, dose 5 mg/kg, time <=24; conditions: in vivo

Sequence of Histone deacetylase 2 (Q92769 whole entry): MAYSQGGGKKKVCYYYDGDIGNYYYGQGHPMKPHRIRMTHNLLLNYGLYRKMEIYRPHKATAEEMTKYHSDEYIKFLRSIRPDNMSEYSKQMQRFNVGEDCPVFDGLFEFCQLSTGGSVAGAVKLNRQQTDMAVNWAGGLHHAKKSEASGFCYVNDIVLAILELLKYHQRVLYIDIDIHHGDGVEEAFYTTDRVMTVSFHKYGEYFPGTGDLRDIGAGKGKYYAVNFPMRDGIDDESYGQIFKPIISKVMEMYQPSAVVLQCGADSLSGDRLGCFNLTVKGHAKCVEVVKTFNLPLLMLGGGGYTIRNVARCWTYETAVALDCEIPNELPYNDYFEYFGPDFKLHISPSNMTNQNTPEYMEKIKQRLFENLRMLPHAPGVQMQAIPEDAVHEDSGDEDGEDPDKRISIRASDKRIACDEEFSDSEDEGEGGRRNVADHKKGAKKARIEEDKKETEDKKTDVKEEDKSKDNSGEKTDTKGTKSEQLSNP

For `Cl.O=C(NO)c1cnc(N2CCC3(CCN(Cc4c[nH]c5ccccc45)C3)CC2)nc1`, the selectivity ratio [1] was 75, the IC50 [2] was 4.5 nM and the Activity [3] was “inactive”. For the same compound, the Activity [4] was “Active”, the IC50 [5] was 1.8 nM and the AUC(0-inf) [6] was 95.1 ng·h/mL.
